Measurements from ChEMBL document CHEMBL1142734, “Biological properties of D- and L-1-deoxyazasugars” (J Med Chem, 2005).

Tests used:
[1] = target: T1, Tissue alpha-L-fucosidase (Bos taurus) (UniProt Q2KIM0); conditions: 1000 uM
T1 sequence (whole entry): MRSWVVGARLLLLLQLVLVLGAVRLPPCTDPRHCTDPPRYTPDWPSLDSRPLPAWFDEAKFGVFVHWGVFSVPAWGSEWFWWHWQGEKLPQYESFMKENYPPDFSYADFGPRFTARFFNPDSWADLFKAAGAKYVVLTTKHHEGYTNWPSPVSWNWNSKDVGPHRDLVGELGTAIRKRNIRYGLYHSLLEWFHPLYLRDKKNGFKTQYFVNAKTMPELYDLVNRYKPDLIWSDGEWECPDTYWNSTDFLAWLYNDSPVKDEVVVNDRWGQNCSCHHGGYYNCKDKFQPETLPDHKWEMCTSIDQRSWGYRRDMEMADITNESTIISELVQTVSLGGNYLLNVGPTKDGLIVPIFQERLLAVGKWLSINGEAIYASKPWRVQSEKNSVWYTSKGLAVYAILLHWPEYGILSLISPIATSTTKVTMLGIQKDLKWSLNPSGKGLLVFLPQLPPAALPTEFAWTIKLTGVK

[2] = target: T2, Lysosomal alpha-mannosidase (Homo sapiens) (UniProt O00754); assay: Percent inhibition of human alpha-mannosidase at 1000 uM
T2 sequence (whole entry): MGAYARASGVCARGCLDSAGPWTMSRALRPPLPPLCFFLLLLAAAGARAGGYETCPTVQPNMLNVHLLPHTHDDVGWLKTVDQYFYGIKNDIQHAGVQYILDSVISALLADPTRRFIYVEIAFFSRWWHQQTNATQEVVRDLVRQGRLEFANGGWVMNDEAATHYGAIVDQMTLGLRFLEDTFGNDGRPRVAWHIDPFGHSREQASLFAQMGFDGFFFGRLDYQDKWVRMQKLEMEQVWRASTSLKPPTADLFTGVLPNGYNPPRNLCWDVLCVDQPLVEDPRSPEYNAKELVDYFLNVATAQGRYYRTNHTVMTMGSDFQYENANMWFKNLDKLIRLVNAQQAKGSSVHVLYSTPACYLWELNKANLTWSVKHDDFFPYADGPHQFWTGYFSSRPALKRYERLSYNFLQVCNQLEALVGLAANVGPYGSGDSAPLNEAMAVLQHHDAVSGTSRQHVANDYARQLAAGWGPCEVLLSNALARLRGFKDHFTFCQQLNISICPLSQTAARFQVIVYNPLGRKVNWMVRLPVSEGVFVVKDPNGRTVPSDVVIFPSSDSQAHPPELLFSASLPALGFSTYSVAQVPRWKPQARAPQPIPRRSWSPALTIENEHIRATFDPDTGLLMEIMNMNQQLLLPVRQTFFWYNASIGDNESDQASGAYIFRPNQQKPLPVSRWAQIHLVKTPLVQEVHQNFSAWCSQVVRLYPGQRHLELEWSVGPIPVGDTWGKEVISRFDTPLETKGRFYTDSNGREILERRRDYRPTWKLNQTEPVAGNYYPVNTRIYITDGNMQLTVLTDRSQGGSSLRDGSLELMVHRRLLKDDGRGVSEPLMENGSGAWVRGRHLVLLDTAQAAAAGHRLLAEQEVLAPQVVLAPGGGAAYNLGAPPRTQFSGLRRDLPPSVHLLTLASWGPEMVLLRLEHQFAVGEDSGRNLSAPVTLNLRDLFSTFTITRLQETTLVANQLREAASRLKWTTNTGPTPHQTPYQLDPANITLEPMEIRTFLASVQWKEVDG

[3] = target: T3, Alpha-galactosidase A (Homo sapiens) (UniProt P06280); conditions: 1000 uM
T3 sequence (whole entry): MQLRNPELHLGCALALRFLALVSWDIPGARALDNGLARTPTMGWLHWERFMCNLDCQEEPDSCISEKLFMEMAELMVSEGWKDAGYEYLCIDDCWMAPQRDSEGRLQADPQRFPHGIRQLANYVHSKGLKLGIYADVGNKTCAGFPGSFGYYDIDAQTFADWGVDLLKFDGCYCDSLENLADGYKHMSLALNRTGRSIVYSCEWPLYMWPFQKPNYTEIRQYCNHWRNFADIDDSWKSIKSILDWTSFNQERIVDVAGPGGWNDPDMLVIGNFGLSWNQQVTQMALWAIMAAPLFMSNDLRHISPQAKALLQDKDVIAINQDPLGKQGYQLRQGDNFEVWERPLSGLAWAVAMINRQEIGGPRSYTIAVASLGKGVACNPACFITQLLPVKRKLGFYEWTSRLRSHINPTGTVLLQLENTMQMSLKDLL

[4] = target: Maltase-glucoamylase (Homo sapiens) (UniProt O43451); conditions: 1000 uM
[5] = target: T4, Cytosolic beta-glucosidase (Homo sapiens) (UniProt Q9H227); conditions: 1000 uM
T4 sequence (whole entry): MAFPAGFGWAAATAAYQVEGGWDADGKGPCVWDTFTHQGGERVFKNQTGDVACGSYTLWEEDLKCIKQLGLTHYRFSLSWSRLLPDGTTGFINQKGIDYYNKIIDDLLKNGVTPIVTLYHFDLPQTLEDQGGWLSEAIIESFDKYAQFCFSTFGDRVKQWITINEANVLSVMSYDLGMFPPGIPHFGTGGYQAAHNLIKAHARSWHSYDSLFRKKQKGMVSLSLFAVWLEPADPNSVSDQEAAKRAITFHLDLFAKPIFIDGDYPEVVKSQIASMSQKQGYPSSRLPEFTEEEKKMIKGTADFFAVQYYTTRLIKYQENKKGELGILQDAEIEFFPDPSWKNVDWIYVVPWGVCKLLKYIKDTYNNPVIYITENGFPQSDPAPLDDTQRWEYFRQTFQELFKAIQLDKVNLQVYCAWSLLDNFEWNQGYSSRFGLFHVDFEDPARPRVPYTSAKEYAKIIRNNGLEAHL

Measured: inhibition

Maltase-glucoamylase (Homo sapiens), sequence (O43451 whole entry, looked up): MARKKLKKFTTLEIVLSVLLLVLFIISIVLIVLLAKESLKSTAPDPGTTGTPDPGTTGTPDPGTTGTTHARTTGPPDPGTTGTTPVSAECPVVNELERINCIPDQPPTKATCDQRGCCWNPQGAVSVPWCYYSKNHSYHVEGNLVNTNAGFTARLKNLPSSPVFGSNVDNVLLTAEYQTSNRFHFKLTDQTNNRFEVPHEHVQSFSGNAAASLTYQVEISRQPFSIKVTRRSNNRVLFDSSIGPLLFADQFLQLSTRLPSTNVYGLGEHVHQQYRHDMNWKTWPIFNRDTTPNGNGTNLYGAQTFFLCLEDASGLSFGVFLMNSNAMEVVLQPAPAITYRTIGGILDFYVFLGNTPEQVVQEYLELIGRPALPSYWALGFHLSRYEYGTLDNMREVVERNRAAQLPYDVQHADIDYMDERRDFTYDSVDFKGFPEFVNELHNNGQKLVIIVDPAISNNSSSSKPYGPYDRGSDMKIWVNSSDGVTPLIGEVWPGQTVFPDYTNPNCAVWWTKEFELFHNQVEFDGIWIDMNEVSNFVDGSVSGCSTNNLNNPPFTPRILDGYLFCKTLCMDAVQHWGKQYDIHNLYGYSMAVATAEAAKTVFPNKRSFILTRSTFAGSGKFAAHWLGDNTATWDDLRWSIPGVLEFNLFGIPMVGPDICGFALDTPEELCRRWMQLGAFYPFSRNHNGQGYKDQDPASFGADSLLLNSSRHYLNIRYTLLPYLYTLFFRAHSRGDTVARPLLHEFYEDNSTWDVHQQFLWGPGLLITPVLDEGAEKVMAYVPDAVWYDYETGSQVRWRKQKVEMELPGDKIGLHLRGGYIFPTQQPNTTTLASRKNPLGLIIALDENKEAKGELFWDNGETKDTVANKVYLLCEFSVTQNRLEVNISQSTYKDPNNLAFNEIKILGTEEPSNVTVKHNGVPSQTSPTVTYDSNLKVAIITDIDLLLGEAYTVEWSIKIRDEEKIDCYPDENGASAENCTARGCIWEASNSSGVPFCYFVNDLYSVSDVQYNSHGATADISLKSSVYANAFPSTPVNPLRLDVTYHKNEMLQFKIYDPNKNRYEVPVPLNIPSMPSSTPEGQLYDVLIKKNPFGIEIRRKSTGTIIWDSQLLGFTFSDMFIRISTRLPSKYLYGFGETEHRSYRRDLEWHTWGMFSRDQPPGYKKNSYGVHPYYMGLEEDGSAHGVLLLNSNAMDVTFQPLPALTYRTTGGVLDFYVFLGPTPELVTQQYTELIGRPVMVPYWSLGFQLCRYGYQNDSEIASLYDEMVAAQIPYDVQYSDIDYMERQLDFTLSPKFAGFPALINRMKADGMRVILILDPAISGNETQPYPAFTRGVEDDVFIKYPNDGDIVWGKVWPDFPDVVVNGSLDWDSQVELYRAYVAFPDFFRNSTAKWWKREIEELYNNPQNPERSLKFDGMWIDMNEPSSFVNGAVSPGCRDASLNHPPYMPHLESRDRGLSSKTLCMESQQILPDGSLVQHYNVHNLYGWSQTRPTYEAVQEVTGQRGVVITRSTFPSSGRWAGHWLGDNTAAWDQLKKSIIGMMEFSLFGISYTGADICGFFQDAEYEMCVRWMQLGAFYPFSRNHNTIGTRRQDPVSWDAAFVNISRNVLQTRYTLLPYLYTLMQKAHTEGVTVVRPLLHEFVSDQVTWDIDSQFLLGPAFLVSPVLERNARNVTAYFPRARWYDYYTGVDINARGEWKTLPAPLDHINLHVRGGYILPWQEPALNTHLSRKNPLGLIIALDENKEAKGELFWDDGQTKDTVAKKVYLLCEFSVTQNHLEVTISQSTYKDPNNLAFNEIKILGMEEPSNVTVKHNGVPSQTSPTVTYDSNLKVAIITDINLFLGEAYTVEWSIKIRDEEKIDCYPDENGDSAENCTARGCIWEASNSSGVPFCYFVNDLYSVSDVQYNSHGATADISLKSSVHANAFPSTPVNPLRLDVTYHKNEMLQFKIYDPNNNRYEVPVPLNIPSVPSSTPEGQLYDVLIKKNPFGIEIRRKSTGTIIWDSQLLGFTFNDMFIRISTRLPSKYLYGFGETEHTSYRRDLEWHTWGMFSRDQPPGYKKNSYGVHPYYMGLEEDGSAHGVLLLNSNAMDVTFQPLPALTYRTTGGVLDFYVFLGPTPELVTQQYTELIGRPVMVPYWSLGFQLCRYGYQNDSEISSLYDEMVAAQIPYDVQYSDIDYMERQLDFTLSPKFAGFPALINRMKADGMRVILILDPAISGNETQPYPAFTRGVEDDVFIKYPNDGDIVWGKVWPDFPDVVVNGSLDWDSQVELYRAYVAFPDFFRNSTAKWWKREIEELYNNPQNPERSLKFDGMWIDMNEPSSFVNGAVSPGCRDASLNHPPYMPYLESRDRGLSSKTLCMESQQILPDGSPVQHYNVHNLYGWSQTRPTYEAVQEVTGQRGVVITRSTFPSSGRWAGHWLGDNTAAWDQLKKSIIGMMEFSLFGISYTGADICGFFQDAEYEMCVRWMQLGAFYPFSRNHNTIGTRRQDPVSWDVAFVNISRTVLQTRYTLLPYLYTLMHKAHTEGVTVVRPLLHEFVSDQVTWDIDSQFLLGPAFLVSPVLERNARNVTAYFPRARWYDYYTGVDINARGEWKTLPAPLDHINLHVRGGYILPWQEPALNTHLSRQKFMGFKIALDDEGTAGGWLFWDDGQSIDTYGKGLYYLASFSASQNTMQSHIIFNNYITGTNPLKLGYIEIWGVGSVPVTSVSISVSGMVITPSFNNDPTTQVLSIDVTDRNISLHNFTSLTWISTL

OC[C@H]1NC[C@H](O)[C@H](O)[C@@H]1O
< 50%: [1] | [2] | [3] | [4] | [5]

OC[C@H]1NC[C@H](O)[C@H](O)[C@H]1O
< 50%: [1] | [2] | [4] | [5]

OC[C@@H]1NC[C@H](O)[C@@H](O)[C@@H]1O
< 50%: [1] | [2] | [3] | [4] | [5]

OC[C@H]1NC[C@@H](O)[C@@H](O)[C@@H]1O [DEOXYMANNOJIRIMYCIN]
< 50%: [2] | [3] | [4] | [5]

OC[C@@H]1NC[C@H](O)[C@H](O)[C@H]1O
< 50%: [1] | [2] | [3] | [4] | [5]

OC[C@@H]1NC[C@@H](O)[C@@H](O)[C@H]1O
< 50%: [1] | [3] | [4] | [5]

OC[C@@H]1NC[C@@H](O)[C@H](O)[C@H]1O
< 50%: [1] | [2] | [3] | [4] | [5]

OC[C@@H]1NC[C@@H](O)[C@H](O)[C@@H]1O
< 50%: [2] | [4] | [5]

OC[C@H]1NC[C@H](O)[C@@H](O)[C@@H]1O [DUVOGLUSTAT]
< 50%: [2] | [3]

OC[C@H]1NC[C@@H](O)[C@H](O)[C@H]1O
< 50%: [1] | [2] | [4]

OC[C@@H]1NC[C@@H](O)[C@@H](O)[C@@H]1O
< 50%: [2] | [3] | [4] | [5]

OC[C@H]1NC[C@H](O)[C@@H](O)[C@H]1O
< 50%: [1] | [2] | [4] | [5]
